# Source: patent publication US20050059641A1, “Compositions and methods for treating and preventing cancer using analogs of vitamin D” (Aphios Corporation, priority 2003, published 2005)
# Legend:
# [1] = system: PC3 cells (prostate cancer cells); experiment: 3H-thymidine incorporation assay, PC3; format: cell-based, human; details: PC-3 cells, 10^−6M
# Excerpt: (§1) It is well known that secretory epithelial cells are the main sites for the development of cancers of the breast, prostate and various other organs.
# (§2) In a study, investigators compared the growth-inhibitory effects of 25-OH-D3-3-BE and 1,25(OH)2D3 in several VDR-positive epithelial cells, e.g. keratinocytes (primary skin cells), MCF-7 cells (breast cancer cells), hormone-sensitive LNCaP and hormone-refractory PC3 cells (prostate cancer cells), and PZ-HPV-7 (papillovirus immortalized normal prostate cells) by using ^3H-thymidine incorporation assays (FIGS. 14-19).
# Since 25-OH-D3-3-BE contains an ester bond, its hydrolysis by esterases in growing cells would produce equimolar amounts of bromoacetic acid (BAA) and 25-OH-D3 (see, FIG. 21).
# Furthermore, fetal calf serum (FCS) contains many proteins, including vitamin D-binding protein, which potentially could absorb 25-OH-D3-3-BE before it reacts with VDR. Typically, the assays described herein were carried out in a media containing 10% FCS (after serum-depriving the cells for 15 hours).
# [2] = system: PZ-HPV-7 (papillovirus immortalized normal prostate cells); experiment: 3H-thymidine incorporation assay, PZ-HPV-7; format: cell-based; details: PZ-HPV-7 cells, 10^−6M
# Description: as §1
# The inventors further studied the effect of 1,25(OH)2D3-3-BE on LNCAP cells (most closely resembling human hormone-sensitive prostate cancer) and PZ-HPV-7 cells (immortalized normal prostate cells). The cells were treated with ethanol or 10^−6M of either 1,25(OH)2D3 or 1,25(OH)2D3-3-BE for 16 hours and the effect on proliferation was determined by ^3H-thymidine incorporation assays as described earlier. The viable cell count was determined by Methylene blue assay. The Methylene blue assay is a simple colorimetric method that is widely used to determine the viable cell count.
# as §2
# [3] = in vivo toxicity study in CD-1 mice; parameters: Serum Calcium on day 12: unit not given here; details: for Body Weight on Day 12 / Serum Calcium on day 12 / Body Weight On Day 0: CD-1 mice; for Body Weight On Day 0: beginning of the experiment
# Excerpt: Investigators completed an in vivo study to determine the toxicity of 25-OH-D3-3-BE at various doses in CD-1 mice. The animals (average weight ˜30 gms) were maintained with normal chow and water ad libitum. […] At the end of the experiment the animals were lightly anesthetized and blood collected after decapitation for serum calcium-analysis. […] Frequency of administration, body weights at the beginning and at the end of the experiment and serum calcium values are given in the accompanying Table 1.
# PC-3 cells = experiment: DNA-fragmentation analysis; format: cell-based, human; details: 250 nM, 10 hours
# Description: (a) DNA-fragmentation analysis: PC-3 cells (2×10^6) were treated with 250 nM of 1,25(OH)2D3, 25-OH-D3 or 25-OH-D3-3-BE for 10 hours. The cells were harvested and lysed in 0.5 ml lysis buffer (20 mM Tris-HCl, 10 mM EDTA, 0.5% Triton X-100, pH 8.0), and DNA was extracted using phenol-chloroform procedure. The DNA was resuspended in 0.1 ml of 20 mM Tris-HCl, pH 8 and treated with Rnase, followed by electrophoresis on 1.2% agarose gel in TAE. The DNA was visualized under UV light after ethidinium bromide staining.
# caspase-3 = experiment: Caspase Colorimetric assay, caspase-3; format: cell-based; details: PC3 cells, 10 nM, 14 hours
# Description: (§3) Caspase-activity: There are several markers for apoptosis, and caspase activity is one of them; and their levels normally go up under apoptotic conditions. Investigators determined the levels of caspases 3, 8 and 9 by Caspase Colorimetric assay kits from R&D Systems (Minneapolis, Minn.) and used according to the manufacturer's instructions. Briefly, PC3 cells (1×10^6) were treated with 10 nM of 1,25(OH)2D3, 25-OH-D3 or 25-OH-D3-3-BE for 14 hours in culture medium (DMEM, 10% FBS and antibiotics). The cells were collected by centrifugation at 1000 RPM for 5 min. The cell pellet was lysed with lysis buffer, and the lysate was incubated on ice for 10 min. and centrifuged for 10,000 RPM for 5 min. Protein was estimated using Bradford protein estimation kit (BioRad). The enzymatic reactions were carried out in 96 well plate. For each reaction 100 μg lysate protein in 50 μl was incubated with 50 μl of 2×reaction buffer and 5 μl of caspase-3 or caspase-8 or caspase-9 calorimetric substrate for 2 h at 37° C. The absorbance was determined at 405 nm.
# caspase-8 = experiment: Caspase Colorimetric assay, caspase-8; format: cell-based; details: PC3 cells, 10 nM, 14 hours
# Description: as §3
# caspase-9 = experiment: Caspase Colorimetric assay, caspase-9; format: cell-based; details: PC3 cells, 10 nM, 14 hours
# Description: as §3
smiles,measurement,setting,value
"C=C1CCC(OC(=O)CBr)CC1=CC=C1CCCC2(C)C1CCC2C(C)CCCC(C)(C)O (stereo not drawn) [25-OH-D3-3-BE, 25-hydroxyvitamin D3-3-bromoacetate]",growth-inhibitory effect (3H-thymidine incorporation),[1],"stronger antiproliferative agent than 1,25(OH)2D3"
same,lethal to the cells,[1],lethal
same,growth-inhibitory effect (3H-thymidine incorporation),[2],antiproliferative
same,lethal to the cells,[2],not
same,Body Weight on Day 12,[3]; 3.3 μg/kg intraperitoneally,30.36 ± 1 grams
same,Serum Calcium on day 12,[3]; 3.3 μg/kg intraperitoneally,9.1 ± 0.2
same,Body Weight On Day 0,[3]; 3.3 μg/kg intraperitoneally,29 ± 0.6 grams
same,Body Weight on Day 12,[3]; 33 μg/kg intraperitoneally,32.9 ± 1.4 grams
same,Serum Calcium on day 12,[3]; 33 μg/kg intraperitoneally,9.4 ± 0.2
same,Body Weight On Day 0,[3]; 33 μg/kg intraperitoneally,31 ± 0.83 grams
same,Body Weight on Day 12,[3]; 166.7 μg/kg intraperitoneally,30.7 ± 1 grams
same,Serum Calcium on day 12,[3]; 166.7 μg/kg intraperitoneally,9.7 ± 0.1
same,Body Weight On Day 0,[3]; 166.7 μg/kg intraperitoneally,30.55 ± 0.7 grams
same,toxicity in vivo,"[3]; mouse, dose as high as 166.7 μg/Kg",non-toxic
same,DNA fragmentation (apoptosis),PC-3 cells,DNA fragmentation was observed
same,Caspase-3 induction,caspase-3,induced
same,Caspase-8 induction,caspase-8,induced
same,Caspase-9 induction,caspase-9,induced
